The values below are quoted from earlier work in US20130183383A1, “PHARMACEUTICAL COMPOSITIONS FOR CALANOLIDES, THEIR DERIVATIVES AND ANALOGUES, AND PROCESS FOR PRODUCING THE SAME” (Craun Research SDN BHD, priority 2010, published 2013).

The conditions of the series: soft gelatin capsules containing 100 mg (+)-calanolide A in oil-based / sesame oil-based vehicle.

In the case of `CCCc1cc(=O)oc2c3c(c4c(c12)OC(C)(C)C=C4)O[C@H](C)[C@@H](C)[C@@H]3O` [calanolide A, (+)-Calanolide A], the Bioavailability result is on record as “poor bioavailability”.
